We go through 14 molecules from ChEMBL document CHEMBL1201862, “PubChem BioAssay data set” (2004).

Holding throughout (test): inhibition of tumour cell growth, NCI panel, 48 h
For test [1], the system named is UACC-257.
Test [2] concerns SF-268.
Test [3] deals with K562.
The subject of test [4] is CCRF-CEM.
Test [5] deals with SNB-78.
Test [6] relates to DMS-114.
Test [7] concerns UACC-62.
Test [8] concerns 786-0.
Test [9] has as its system SNB-19.
In test [10] the test system is COLO 205.
In test [11] the test system is UO-31.
The test system of test [12] is RXF 393.
For test [13], the system named is SK-MEL-28.
The test system of test [14] is HCT-116.
The subject of test [15] is SR.
In test [16] the test system is PC-3.
Test [17] relates to DU-145.
Test [18] relates to NCI/ADR-RES.
Test [19] relates to MCF7.
Test [20] relates to T47D.

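Method: 48-hour compound exposure of cells in 96-well plates, five concentrations, linear interpolation of endpoints. GI50 is the concentration that inhibits growth by half.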 Activity calls are given as the source filed them. Rule as the data show it: active = GI50 up to about 1.1 µM and inactive = higher. Bounds are passed on as bounds.

On to `Cc1cc(Cl)ccc1NC(=O)C(=O)Cc1nc2ccccc2o1`, for which the GI50 in test [1], in test [2], in test [3], in [4], in test [5] and in test [6] was > 100 µM (inactive) throughout. The GI50 in [7], in [8], in test [9], in test [10], in test [11] and in test [12] was > 100 µM (inactive) in each case. Besides, the GI50 in [13] was > 100 µM (inactive).
On to `Cc1ccc(S(=O)(=O)N/N=C/C(C)C)cc1`, for which the GI50 in [1], in test [2], in [3], in test [4], in [5] and in test [6] was > 100 µM (inactive) in each case. For the same molecule, the GI50 in test [7], in test [8], in test [9], in [10], in [11] and in test [12] was > 100 µM (inactive) in each case. Further, the GI50 in test [14] is > 100 µM (inactive).
Take `O=Cc1ccc2c(c1I)OCO2`: the GI50 in [1], in test [3], in test [4], in test [5], in [7] and in test [8] was > 100 µM (inactive) in each case. Also, the GI50 in test [9], in [10], in [11], in [14] and in [15] was > 100 µM (inactive) in each case.
Turning to `O=[N+]([O-])c1ccc(-c2noc(-c3ccc(Cl)cc3)c2C2=NCCN2)cc1`, the GI50 in test [1], in test [2], in [3], in test [4], in test [5] and in test [7] was > 100 µM (inactive) throughout. The GI50 in test [8], in test [9], in test [10], in test [11], in [12] and in test [14] was > 100 µM (inactive) in each case. In addition, the GI50 in test [13] and in test [15] was > 100 µM (inactive) in each case.
Take `COc1ccc2c(c1)OC[C@@H]1c3cc4c(cc3O[C@H]21)OCO4`: the GI50 was 75 µM (inactive) in test [2]; > 100 µM (inactive) in [3]; > 100 µM (inactive) in [4]; > 100 µM (inactive) in test [5]; > 100 µM (inactive) in test [6]; > 100 µM (inactive) in test [8]. Besides, the GI50 in test [9] was 30.4 µM (inactive); in test [10], > 100 µM (inactive); in [11], > 100 µM (inactive); in test [12] it was > 100 µM (inactive); in test [14], > 100 µM (inactive); in test [13], > 100 µM (inactive).
Turning to `CCOC(=O)c1sc2c(C(=O)OCC)n3ccccc3c2c1N`, the GI50 in test [1] was > 100 µM (inactive); in test [2], 21.7 µM (inactive); in test [3], > 100 µM (inactive); in test [4] it was > 100 µM (inactive); in [5], 50.9 µM (inactive); in [6], 40.6 µM (inactive). The GI50 in test [7] was > 100 µM (inactive); in test [8] it was 36.2 µM (inactive); in test [9], 31.7 µM (inactive); in test [10] it was > 100 µM (inactive); in test [11], 26.1 µM (inactive); in test [12] it was 20.2 µM (inactive). Moreover, the GI50 in test [14] was 81.5 µM (inactive); in test [13], > 100 µM (inactive).
Consider `CC(=O)Nc1ccc(S(=O)(=O)N/N=C/c2cc(I)cc([N+](=O)[O-])c2O)cc1`, for which the GI50 in test [1] was > 100 µM (inactive); in test [2], 32.9 µM (inactive); in test [3] it was 57.3 µM (inactive); in [4], 35.6 µM (inactive); in [5] it was 37 µM (inactive); in test [6] it was 50.8 µM (inactive). The GI50 in test [7] is 30.3 µM (inactive); in test [8], > 100 µM (inactive); in test [9], 55.3 µM (inactive); in test [10] it was > 100 µM (inactive); in test [11], 33.3 µM (inactive); in test [12] it was 21.5 µM (inactive). For the same molecule, the GI50 in test [13] was 25.2 µM (inactive).
For `Nc1c(-c2cn(Cc3ccccc3)c3ccccc23)[n+]([O-])c2ccccc2[n+]1[O-]`, the GI50 is 12.8 µM (inactive) in test [1]; 21.5 µM (inactive) in [2]; 24.5 µM (inactive) in [3]; 27.1 µM (inactive) in test [4]; 53.8 µM (inactive) in test [5]; 16.7 µM (inactive) in test [6]. Moreover, the GI50 in [7] was 23.6 µM (inactive); in test [8], 30.7 µM (inactive); in test [9], 36.6 µM (inactive); in test [10], 35.3 µM (inactive); in test [11] it was 10.2 µM (inactive); in test [13] it was 25.4 µM (inactive).
With `COC(=O)CCC(=O)N1Cc2cc(C)ccc2N(C(=O)CCC(=O)OC)Cc2cc(C)ccc21`, the GI50 in test [2], in test [3], in test [4], in [5], in test [7] and in test [8] was > 100 µM (inactive) each time. The GI50 in test [10], in test [11], in [12], in test [14], in test [13] and in test [15] was > 100 µM (inactive) in each case.
For `c1ccc(P(=C2c3ccccc3-c3ccccc32)(c2ccccc2)c2ccccc2)cc1`, the GI50 in test [1] was 3.94 µM (inactive); in test [2] it was 7.19 µM (inactive); in test [3], 2.1 µM (inactive); in test [4] it was 2.51 µM (inactive); in [6], 2.79 µM (inactive); in [7], 3.46 µM (inactive). For the same molecule, the GI50 in test [8] is 4.68 µM (inactive); in test [9], 4.67 µM (inactive); in test [10], 3.42 µM (inactive); in test [11], 8.87 µM (inactive); in test [12], 13 µM (inactive); in [13], 6.5 µM (inactive).
Regarding `O=C1/C(=N\O)C2CCC1C2` (centres undefined), the GI50 in [1], in test [2], in [3], in test [4], in test [5] and in test [6] was > 100 µM (inactive) each time. The GI50 in test [7], in test [8], in test [9], in test [10], in test [11] and in [12] was > 100 µM (inactive) in each case. Further, the GI50 in [14] and in [13] was > 100 µM (inactive) each time.
On to `C/C(=C\CC[C@]1(C)OC(C)(C)OC1CC/C(C)=C/CO[Si](c1ccccc1)(c1ccccc1)C(C)(C)C)CC/C=C/CO[Si](C)(C)C(C)(C)C` (some centres undefined), for which the GI50 in test [1], in test [2], in test [3], in test [4], in test [5] and in [6] was > 100 µM (inactive) each time. Moreover, the GI50 in [7], in test [8], in test [9], in [11], in [12] and in [14] was > 100 µM (inactive) in each case. For the same molecule, in [13], the GI50 is > 100 µM (inactive).
With `C=C(C)[C@@H]1CC[C@]2(C(=O)O)CC[C@]3(C)[C@H](CC[C@@H]4[C@@]5(C)CC[C@H](O)C(C)(C)[C@@H]5CC[C@]43C)[C@@H]12` [BETULINIC ACID], the GI50 is 6.03 µM (inactive) in [1]; 7.48 µM (inactive) in [16]; 7.6 µM (inactive) in test [2]; 5.13 µM (inactive) in test [3]; 5.15 µM (inactive) in test [4]; 9.71 µM (inactive) in test [17]. The GI50 in test [7] is 14.1 µM (inactive); in test [8] it was 10.2 µM (inactive); in test [9], 13.7 µM (inactive); in test [10], 4.63 µM (inactive); in test [11] it was 11 µM (inactive); in test [12] it was 2.64 µM (inactive). The GI50 is 7.23 µM (inactive) in [18]; 13.7 µM (inactive) in [19]; 4.27 µM (inactive) in test [14]; 7.13 µM (inactive) in test [20]; 17.1 µM (inactive) in [13]; 5.53 µM (inactive) in test [15].
With `COc1ccc(-c2cc(=O)c3c(O)c(OC)c(OC)c(OC)c3o2)cc1` [GARDENIN B], the GI50 in [1] is > 100 µM (inactive); in [16], 30 µM (inactive); in test [2], > 68.4 µM (inactive); in test [3] it was 0.498 µM (active); in test [4] it was > 100 µM (inactive); in [17], > 100 µM (inactive). The GI50 in test [7] was 45.3 µM (inactive); in test [8], 21.5 µM (inactive); in test [9] it was 25.4 µM (inactive); in test [10], 7.83 µM (inactive); in [11] it was > 100 µM (inactive); in [12] it was 10.6 µM (inactive). Further, the GI50 in [18] was > 100 µM (inactive); in [19], 4.86 µM (inactive); in [14] it was 13.4 µM (inactive); in [20], 26.9 µM (inactive); in test [13], > 100 µM (inactive); in test [15], 0.39 µM (active).
